According to US8609173B2, “Compositions comprising sweetness enhancers and methods of making them” (Senomyx Inc., priority 2008, dated 2013):

Assays:
Format in all cases: in vivo, Human
External panelists [1] = test: Line scale (15-point sucrose equivalence) sensory test, Example 3A/3C, sucrose or LSB, pH 7.1; parameters: key to Average Sweetness / Average Bitterness: 15-point scale: 0 = 0% sucrose to 15 = 15% sucrose; references = 5
Procedure: (§1) Several types of sensory tests were used to determine the efficacy of 5-(neopentyloxy)-1H-benzo[c][1,2,6]thiadiazin-4-amino-2,2-dioxide in enhancing sweetness of sucrose. Two types of tests were conducted: • 1) Sensory scaling tests were performed using a 15-point percent sucrose equivalence scale for sweetness in order to evaluate sweetness enhancement 5-(neopentyloxy)-1H-benzo[c][1,2,6]thiadiazin-4-amino-2,2-dioxide in sucrose, or in fructose. • 2) Paired comparison tests (2-alternative forced choice difference tests) were used to determine sweetness equivalence for solutions of sucrose vs. 5-(neopentyloxy)-1H-benzo[c][1,2,6]thiadiazin-4-amino-2,2-dioxide or buffer vs. 5-(neopentyloxy)-1H-benzo[c][1,2,6]thiadiazin-4-amino-2,2-dioxide. Stimuli:
Tests were performed with sucrose or fructose. Sweetener was evaluated with and/or without 5-(neopentyloxy)-1H-benzo[c][1,2,6]thiadiazin-4-amino-2,2-dioxide at the appropriate concentration(s).
5-(Neopentyloxy)-1H-benzo[c][1,2,6]thiadiazin-4-amino-2,2-dioxide was prepared as a concentrated stock solution in ethanol to ensure dissolution of the compound. Therefore, all taste solutions contained 0.1% ethanol final concentration. Samples without compound also contained 0.1% ethanol. Low sodium phosphate buffer consists of 0.3 mM KCl, 0.5 mM Na2HPO4, and 0.175 mM KH2PO4.
In scaling test situations, the samples were rated on a 15-point scale for sweetness, ranging from 0=0% sucrose to 15=15% sucrose. To evaluate attributes other than sweetness, references are used for training and are prepared according to the table below. Note that each reference was given a score of 5 on the 15-point scale.
External panelists were used for the tests. The exact number of panelists is reported with test results. Subjects were instructed not to eat or drink anything (except water) for at least 1 hour prior to the test.
Panelists rinsed their mouths with water prior to starting any test. Samples were presented to panelists in a randomized, counterbalanced order. Panelists rinsed with water and had up to a 1 minute delay to clear the mouth of any tastes after each evaluation. Two replicates of each test were performed, unless otherwise noted.

Panelists [2] = test: Paired comparison taste test, flavored water
Procedure: Two sweetened water solutions were prepared and compared: Flavored Water with 9% Sucrose vs. Flavored Water with 6% Sucrose+2.3 ppm (6.49 μM) of 5-(neopentyloxy)-1H-benzo[c][1,2,6]thiadiazin-4-amino-2,2-dioxide.
Mixing procedures: Dissolve acid into the water using a Lightnin® blender, mix for 5 minutes. Add sugar and continue to mix until dissolved. Add flavors last. Dissolve Compound A into a 0.50% propylene glycol mixture, add last and mix for another 5 minutes. Procedure:
(§2) Panelists evaluated two sweetened water solutions in a paired comparison taste test procedure and were instructed to select the sweeter of the two samples. They perform a total of three paired comparison tests each containing the following samples: Flavored Water with 9% Sucrose vs. Flavored Water with 6% Sucrose+2.3 ppm (6.49 μM) 5-(neopentyloxy)-1H-benzo[c][1,2,6]thiadiazin-4-amino-2,2-dioxide.
Two sweetened water solutions were prepared and compared: Flavored Water with 9% Sucrose vs. Flavored Water with 6% Sucrose+2.44 ppm (6.49 μM) of 3-(4-amino-2,2-dioxide-1H-benzo[c][1,2,6]thiadiazin-5-yloxy)-2′,2′-dimethyl-N-propylpropanamide.
as §2, with “Sucrose+2.44” for “Sucrose+2.3”, “3-(4-amino-2,2-dioxide-1H-benzo[c][1,2,6]thiadiazin-5-yloxy)-2′,2′-dimethyl-N-propylpropanamide.” for “5-(neopentyloxy)-1H-benzo[c][1,2,6]thiadiazin-4-amino-2,2-dioxide.”

External panelists [3] = test: Line scale sensory test, Example 6, fructose as sweetener, pH 7.1; parameters: Average Sweetness / Average Bitterness: scale not given here
Procedure: Sensory evaluations were performed using fructose as the sweetener and 3-(4-amino-2,2-dioxide-1H-benzo[c][1,2,6]thiadiazin-5-yloxy)-2′,2′-dimethyl-N-propylpropanamide as the sweetness enhancer, using methods similar to those using sucrose, above. […]

Panelists [4] = test: Paired comparison taste test, Example 7, sucrose or fructose solutions; settings: vs 6% Fructose + 25 μM compound, N = 25
Procedure: as §1, with “3-(4-amino-2,2-dioxide-1H-benzo[c][1,2,6]thiadiazin-5-yloxy)-2′,2′-dimethyl-N-propylpropanamide 3-(4-amino-2,2-dioxide-1H-benzo[c][1,2,6]thiadiazin-5-yloxy)-2′,2′-dimethyl-N-propylpropanamide” for “5-(neopentyloxy)-1H-benzo[c][1,2,6]thiadiazin-4-amino-2,2-dioxide”, “enhancing the” for “enhancing”, “sucrose” for “sucrose,”, “3-(4-amino-2,2-dioxide-1H-benzo[c][1,2,6]thiadiazin-5-yloxy)-2′,2′-dimethyl-N-propylpropanamide 3-(4-amino-2,2-dioxide-1H-benzo[c][1,2,6]thiadiazin-5-yloxy)-2′,2′-dimethyl-N-propylpropanamide.” for “5-(neopentyloxy)-1H-benzo[c][1,2,6]thiadiazin-4-amino-2,2-dioxide.”
Panelists evaluated two solutions in a paired comparison taste test procedure. They were instructed to select the sweeter of the two samples. They were also asked to comment on how difficult it was to tell the difference in sweetness between both samples and if any off tastes were perceived.
Panelists evaluated two solutions in a paired comparison taste test procedure and were instructed to select the sweeter of the two samples.

[5] = 6% Sucrose + 25 μM compound, pH 7.1, n = 32

## CC(C)(C)COc1cccc2c1C(N)=NS(=O)(=O)N2 [5-(neopentyloxy)-1H-benzo[c][1,2,6]thiadiazin-4-amino-2,2-dioxide]
External panelists [1]; 35.3 μM (10 ppm) compound in LSB or 6% sucrose
  off tastes: no significant off tastes
External panelists [1]; [5]
  Average Bitterness: 0.3
  Average Sweetness: 8.7
External panelists [1]; 6% Sucrose + 35.3 μM (10 ppm) compound, n = 14
  Average Bitterness: 0.6
External panelists [1]; 6% Sucrose + 35.3 μM (10 ppm) compound, p>0.10
  Sweetness vs sucrose solutions (conclusion): not significantly different in sweetness from 8%, 9%, 10% sucrose
External panelists [1]; 6% Sucrose + 35.3 μM (10 ppm) compound, pH 7.1, n = 14
  Average Sweetness: 9.3
External panelists [1]; 6% sucrose + 25 μM compound
  Sweetness vs sucrose solutions (conclusion): not significantly different in sweetness properties compared to 9% and 10% sucrose solutions
  off tastes: No significant off tastes
External panelists [1]; LSB + 35.3 μM (10 ppm) compound, no sucrose, n = 14
  Average Bitterness: 0.3
External panelists [1]; LSB + 35.3 μM (10 ppm) compound, no sucrose, pH 7.1, n = 14
  Average Sweetness: 0.2
External panelists [1]; LSB + 35.3 μM (10 ppm) compound, p>0.10
  Sweetness vs sucrose solutions (conclusion): not significantly different in sweetness than 0% sucrose
Panelists [2]; Flavored Water with 6% Sucrose + 2.3 ppm (6.49 μM) compound chosen, vs 9% Sucrose, n = 45
  Sample selected as sweeter by panelists, Total: 23
Panelists [2]; Flavored Water with 6% Sucrose + 2.3 ppm (6.49 μM) compound vs 9% Sucrose, p>0.10
  Sweetness comparison (conclusion): not significantly different in sweetness

## O=C(CO)[C@@H](O)[C@H](O)[C@H](O)CO [Fructose, fructose]
External panelists [3]; 2% Fructose, Table 29, n = 30
  Average Sweetness: 2.2
External panelists [3]; 2% Fructose, Table 30, n = 30
  Average Bitterness: 0.4
External panelists [3]; 4% Fructose, Table 29, n = 30
  Average Sweetness: 4.5
External panelists [3]; 4% Fructose, Table 30, n = 30
  Average Bitterness: 0.5
External panelists [3]; 6% Fructose, Table 29, n = 30
  Average Sweetness: 5.9
External panelists [3]; 6% Fructose, Table 30, n = 30
  Average Bitterness: 0.4
External panelists [3]; 6% Fructose, Table 31, n = 14
  Average Sweetness: 7.1
External panelists [3]; 6% Fructose, Table 32, n = 14
  Average Bitterness: 0.7
External panelists [3]; 6% Fructose, Table 33, n = 26
  Average Sweetness: 6.9
External panelists [3]; 6% Fructose, Table 34, n = 26
  Average Bitterness: 0.2
External panelists [3]; 8% Fructose, Table 31, n = 14
  Average Sweetness: 8.3
External panelists [3]; 8% Fructose, Table 32, n = 14
  Average Bitterness: 0.3
External panelists [3]; 8% Fructose, Table 33, n = 26
  Average Sweetness: 8.6
External panelists [3]; 8% Fructose, Table 34, n = 26
  Average Bitterness: 0.3
External panelists [3]; 9% Fructose, Table 31, n = 14
  Average Sweetness: 9.4
External panelists [3]; 9% Fructose, Table 32, n = 14
  Average Bitterness: 0.3
External panelists [3]; 9% Fructose, Table 33, n = 26
  Average Sweetness: 9.3
External panelists [3]; 9% Fructose, Table 34, n = 26
  Average Bitterness: 0.1
External panelists [3]; 10% Fructose, Table 31, n = 14
  Average Sweetness: 11.1
External panelists [3]; 10% Fructose, Table 32, n = 14
  Average Bitterness: 0.2
External panelists [3]; 10% Fructose, Table 33, n = 26
  Average Sweetness: 9.5
External panelists [3]; 10% Fructose, Table 34, n = 26
  Average Bitterness: 0.1
Panelists [4]; 6% Fructose chosen
  Sample selected as sweeter by panelists, Test 1: 5
Panelists [4]; 7% Fructose chosen
  Sample selected as more sweet by panelists, Test 1: 13
